In US11548868B2, “Heterocyclic compounds, compositions comprising heterocyclic compound, and methods of use thereof” (JS INNOPHARM (SHANGHAI) LTD, priority 2017, dated 2023):

What was measured:
[1] = target: T1, IDO1 in Hela cancer cells (Homo sapiens, UniProt P14902); test: IDO1 Cellular Assay (kynurenine production in IFN-γ stimulated Hela cancer cells); format: cell-based; details: human IFN-γ 50 ng/mL, 48 hours incubation, kynurenine at 490 nm
T1 construct: endogenous in cells; host or cells: Hela cancer cells stimulated with human IFN-γ
Description: Hela cancer cells (5×10^3 per well) with 85 μL DMEM medium containing 10% FBS were seeded in a 96-well plate and incubated at 95% humidity and 5% CO2 at 37° C. for 24 hours. human IFN-γ (10 μL, 50 ng/mL final concentration) and 5 μL serial dilutions of the test compounds were added into each well. The test compounds were dissolved in DMSO, and successively diluted with pH7.5 buffer (with final DMSO concentration of 0.25%) resulting in final concentrations of the test compounds ranging from 0 to 25 μM (0, 2.5, 7.5, 25, 75, 250, 750, 2500, 7500, & 25000 nM). After 48 hours of incubation, 70 uL of the supernatant per well was transferred to a new 96 well plate. Trichloroacetic acid (6.1 N, 8 μL) was mixed into each well and incubated at 50° C. for 30 min to hydrolyze N-formylkynurenine produced by IDO to kynurenine. The reaction mixture was then centrifuged for 10 min at 2500 RPM to remove sediments. 50 μL of the supernatant per well was transferred to another 96 well plate and mixed with 50 uL of 2% (w/v) p-dimethylaminobenzaldehyde in acetic acid. The yellow color derived from kynurenine was measured at 490 nm using a microplate reader. Percent inhibition of the test compounds was determined by measuring the decrease in kynurenine as compared to the control of DMSO vehicle, which was calculated by formula of (WC-WT)/WC, where WC is the mean absorbance of the control well minus blank well; WT is the mean absorbance of the test well minus the blank well. Data was analyzed by GraphPad Prism 5 and the IC50 values were obtained by non-linear regression.
The IC50 values of for Compounds disclosed are listed in Table 2, A′: ≤0.5 μM; B′: >0.5 μM and ≤1 μM; C′: >1.0 μM and ≤5 uM; and D′: >5 μM.

[2] = target: T2, TDO2 in A172 cancer cells (Homo sapiens, UniProt P48775); test: TDO2 Cellular Assay (kynurenine production in A172 cancer cells); format: cell-based; details: L-Trp 1 mM, 24 hours incubation, kynurenine at 490 nm
T2 construct: endogenous in cells; host or cells: A172 cancer cells
Summary of the method: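 Kynurenine output of A172 cells was read colorimetrically at 490 nm (Ehrlich reagent after TCA hydrolysis at 50 °C). Cells had 1 mM L-Trp plus compound at 0–25 μM in 0.25% DMSO for 24 h; IC50 values were fitted non-linearly from percent inhibition relative to vehicle.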

T2 sequence (P48775 whole entry): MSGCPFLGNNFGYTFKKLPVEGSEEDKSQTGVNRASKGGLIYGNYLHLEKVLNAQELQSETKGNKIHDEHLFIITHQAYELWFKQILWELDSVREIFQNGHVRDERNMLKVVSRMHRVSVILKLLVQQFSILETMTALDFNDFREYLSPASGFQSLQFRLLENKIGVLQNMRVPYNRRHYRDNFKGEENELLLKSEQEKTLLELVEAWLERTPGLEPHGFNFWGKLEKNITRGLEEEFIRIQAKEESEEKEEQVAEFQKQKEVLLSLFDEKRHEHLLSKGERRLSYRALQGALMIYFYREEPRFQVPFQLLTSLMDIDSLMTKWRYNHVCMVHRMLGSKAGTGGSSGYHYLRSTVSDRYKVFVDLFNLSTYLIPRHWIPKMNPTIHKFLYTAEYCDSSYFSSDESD
T1 sequence (P14902 whole entry): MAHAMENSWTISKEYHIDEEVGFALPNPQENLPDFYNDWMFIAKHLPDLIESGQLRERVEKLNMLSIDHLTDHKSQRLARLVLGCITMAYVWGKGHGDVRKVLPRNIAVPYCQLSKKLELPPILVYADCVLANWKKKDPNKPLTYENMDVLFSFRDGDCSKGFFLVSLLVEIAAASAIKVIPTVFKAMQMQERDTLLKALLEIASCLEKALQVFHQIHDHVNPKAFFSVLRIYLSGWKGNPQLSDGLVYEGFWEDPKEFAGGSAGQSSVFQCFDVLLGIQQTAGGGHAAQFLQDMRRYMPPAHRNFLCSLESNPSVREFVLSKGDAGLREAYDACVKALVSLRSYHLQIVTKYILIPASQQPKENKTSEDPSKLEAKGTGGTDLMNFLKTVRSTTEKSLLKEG

| IC50 [1] | IC50 [2] | SMILES |
| --- | --- | --- |
| > 5000 nM | ≤ 500 nM | OC1(c2cc(Cl)cc3[nH]ncc23)CC1 [Example 11, 1-(6-chloro-1H-indazol-4-yl)cyclopropanol] |
| 1000 to 5000 nM | ≤ 500 nM | O[C@@H]1C[C@@H]2C[C@@](O)(c3cc(Cl)cc4[nH]ncc34)C[C@@H]2C1 [Example 32, (2r,3aR,5s,6aS)-2-(6-chloro-1H-indazol-4-yl)octahydropentalene-2,5-diol] |
| > 5000 nM | ≤ 500 nM | O=S(=O)(c1ccccc1)N1C[C@@H]2C[C@@](O)(c3cc(Cl)cc4[nH]ncc34)C[C@@H]2C1 [Example 35, (3aR,5r,6aS)-5-(6-chloro-1H-indazol-4-yl)-2-(phenylsulfonyl)octahydrocyclopenta[c]pyrrol-5-ol] |
| > 5000 nM | ≤ 500 nM | O=C(c1ccccc1)N1C[C@@H]2C[C@@](O)(c3cc(Cl)cc4[nH]ncc34)C[C@@H]2C1 [Example 36, ((3aR,5r,6aS)-5-(6-chloro-1H-indazol-4-yl)-5-hydroxyhexahydrocyclopenta[c]pyrrol-2(1H)-yl)(phenyl)methanone] |
| > 5000 nM | ≤ 500 nM | O=C(C1CC1)N1C[C@@H]2C[C@@](O)(c3cc(Cl)cc4[nH]ncc34)C[C@@H]2C1 [Example 38, ((3aR,5r,6aS)-5-(6-chloro-1H-indazol-4-yl)-5-hydroxyhexahydrocyclopenta[c]pyrrol-2(1H)-yl)(cyclopropyl)methanone] |
| > 5000 nM | ≤ 500 nM | N#Cc1ccc(S(=O)(=O)N2C[C@@H]3C[C@@](O)(c4cc(Cl)cc5[nH]ncc45)C[C@@H]3C2)cc1 [Example 39, 4-(((3aR,5r,6aS)-5-(6-chloro-1H-indazol-4-yl)-5-hydroxyhexahydrocyclopenta[c]pyrrol-2(1H)-yl)sulfonyl)benzonitrile] |
| > 5000 nM | ≤ 500 nM | O=C(c1ccncc1)N1C[C@@H]2C[C@@](O)(c3cc(Cl)cc4[nH]ncc34)C[C@@H]2C1 [Example 40, ((3aR,5r,6aS)-5-(6-chloro-1H-indazol-4-yl)-5-hydroxyhexahydrocyclopenta[c]pyrrol-2(1H)-yl)(pyridin-4-yl)methanone] |
| 1000 to 5000 nM | ≤ 500 nM | N#Cc1ccc(C(=O)N2C[C@@H]3C[C@@](O)(c4cc(Cl)cc5[nH]ncc45)C[C@@H]3C2)cc1 [Example 42, 4-((3aR,5r,6aS)-5-(6-chloro-1H-indazol-4-yl)-5-hydroxyoctahydrocyclopenta[c]pyrrole-2-carbonyl)benzonitrile] |
| 1000 to 5000 nM | ≤ 500 nM | CS(=O)(=O)N1C[C@@H]2C[C@@](O)(c3cc(Cl)cn4cncc34)C[C@@H]2C1 [Example 52, (3aR,5r,6aS)-5-(6-chloroimidazo[1,5-a]pyridin-8-yl)-2-(methylsulfonyl)octahydrocyclopenta[c]pyrrol-5-ol] |
| > 5000 nM | 1000 to 5000 nM | CS(=O)(=O)N1C[C@@H]2C[C@@](O)(c3c(Cl)ccc4cncn34)C[C@@H]2C1 [Example 53, (3aR,5r,6aS)-5-(6-chloroimidazo[1,5-a]pyridin-5-yl)-2-(methylsulfonyl)octahydrocyclopenta[c]pyrrol-5-ol] |
| 500 to 1000 nM | ≤ 500 nM | CS(=O)(=O)N[C@H]1[C@@H]2C[C@@](O)(c3cc(Cl)cc4[nH]ncc34)C[C@@H]21 [Example 63, N-((1R,3r,5S,6r)-3-(6-chloro-1H-indazol-4-yl)-3-hydroxybicyclo[3.1.0]hexan-6-yl)methanesulfonamide] |
| > 5000 nM | ≤ 500 nM | CC(=O)N[C@H]1[C@@H]2C[C@@](O)(c3cc(Cl)cc4[nH]ncc34)C[C@@H]21 [Example 64, N-((1R,3r,5S,6r)-3-(6-chloro-1H-indazol-4-yl)-3-hydroxybicyclo[3.1.0]hexan-6-yl)acetamide] |
| 500 to 1000 nM | ≤ 500 nM | O=C(N[C@H]1[C@@H]2C[C@@](O)(c3cc(Cl)cc4[nH]ncc34)C[C@@H]21)c1ccncc1 [Example 83, N-((1R,3r,5S,6r)-3-(6-chloro-1H-indazol-4-yl)-3-hydroxybicyclo[3.1.0]hexan-6-yl)isonicotinamide] |
| 1000 to 5000 nM | ≤ 500 nM | CNS(=O)(=O)N1C[C@@H]2C[C@@](O)(c3cc(Cl)cc4[nH]ncc34)C[C@@H]2C1 [Example 87, (3aR,5r,6aS)-5-(6-chloro-1H-indazol-4-yl)-5-hydroxy-N-methylhexahydrocyclopenta[c]pyrrole-2(1H)-sulfonamide] |
| 500 to 1000 nM | ≤ 500 nM | O=C(N[C@H]1[C@@H]2C[C@@](O)(c3cc(Cl)cc4[nH]ncc34)C[C@@H]21)c1ccccc1 [Example 93, N-((1R,3r,5S,6r)-3-(6-chloro-1H-indazol-4-yl)-3-hydroxybicyclo[3.1.0]hexan-6-yl)benzamide] |
| > 5000 nM | ≤ 500 nM | O=S(=O)(N[C@H]1[C@@H]2C[C@@](O)(c3cc(Cl)cc4[nH]ncc34)C[C@@H]21)c1ccccc1 [Example 95, N-((1R,3r,5S,6r)-3-(6-chloro-1H-indazol-4-yl)-3-hydroxybicyclo[3.1.0]hexan-6-yl)benzenesulfonamide] |
| 1000 to 5000 nM | 1000 to 5000 nM | CS(=O)(=O)N1C[C@@H]2C[C@@](O)(c3cc(Cl)cc4cn[nH]c34)C[C@@H]2C1 [Example 96, (3aR,5r,6aS)-5-(5-chloro-1H-indazol-7-yl)-2-(methylsulfonyl)octahydrocyclopenta[c]pyrrol-5-ol] |
| > 5000 nM | > 5000 nM | O=C(C1CCOCC1)N1C[C@@H]2C[C@@](O)(c3cc(Cl)cc4cn[nH]c34)C[C@@H]2C1 [Example 97, ((3aR,5r,6aS)-5-(5-chloro-1H-indazol-7-yl)-5-hydroxyhexahydrocyclopenta[c]pyrrol-2(1H)-yl)(tetrahydro-2H-pyran-4-yl)methanone] |
| > 5000 nM | > 5000 nM | O=C(c1ccccc1)N1C[C@@H]2C[C@@](O)(c3cc(Cl)cc4cn[nH]c34)C[C@@H]2C1 [Example 98, ((3aR,5r,6aS)-5-(5-chloro-1H-indazol-7-yl)-5-hydroxyhexahydrocyclopenta[c]pyrrol-2(1H)-yl)(phenyl)methanone] |
| > 5000 nM | 1000 to 5000 nM | O=C(C1CC1)N1C[C@@H]2C[C@@](O)(c3cc(Cl)cc4cn[nH]c34)C[C@@H]2C1 [Example 99, ((3aR,5r,6aS)-5-(5-chloro-1H-indazol-7-yl)-5-hydroxyhexahydrocyclopenta[c]pyrrol-2(1H)-yl)(cyclopropyl)methanone] |
| > 5000 nM | 1000 to 5000 nM | O=S(=O)(C1CC1)N1C[C@@H]2C[C@@](O)(c3cc(Cl)cc4cn[nH]c34)C[C@@H]2C1 [Example 100, (3aR,5r,6aS)-5-(5-chloro-1H-indazol-7-yl)-2-(cyclopropylsulfonyl)octahydrocyclopenta[c]pyrrol-5-ol] |
| > 5000 nM | 1000 to 5000 nM | O=S(=O)(C1CCOCC1)N1C[C@@H]2C[C@@](O)(c3cc(Cl)cc4cn[nH]c34)C[C@@H]2C1 [Example 101, (3aR,5r,6aS)-5-(5-chloro-1H-indazol-7-yl)-2-((tetrahydro-2H-pyran-4-yl)sulfonyl)octahydrocyclopenta[c]pyrrol-5-ol] |
| > 5000 nM | > 5000 nM | O=S(=O)(c1ccccc1)N1C[C@@H]2C[C@@](O)(c3cc(Cl)cc4cn[nH]c34)C[C@@H]2C1 [Example 102, (3aR,5r,6aS)-5-(5-chloro-1H-indazol-7-yl)-2-(phenylsulfonyl)octahydrocyclopenta[c]pyrrol-5-ol] |
| > 5000 nM | 500 to 1000 nM | CC(=O)N1C[C@H]2CC(C(O)c3cc(Cl)cc4[nH]ncc34)C[C@H]2C1 (stereo partly drawn) [Example 104, 1-((3aR,6aS)-5-((6-chloro-1H-indazol-4-yl)(hydroxy)methyl)hexahydrocyclopenta[c]pyrrol-2(1H)-yl)ethanone] |
| > 5000 nM | ≤ 500 nM | CS(=O)(=O)N1C[C@H]2CC(C(O)c3cc(Cl)cc4[nH]ncc34)C[C@H]2C1 (stereo partly drawn) [Example 105, (6-chloro-1H-indazol-4-yl)((3aR,6aS)-2-(methylsulfonyl)octahydrocyclopenta[c]pyrrol-5-yl)methanol] |
| > 5000 nM | 500 to 1000 nM | O[C@@H]1C[C@@H]2C[C@@](O)(c3cc(Cl)cc4cn[nH]c34)C[C@@H]2C1 [Example 106, (2r,3aR,5s,6aS)-2-(5-chloro-1H-indazol-7-yl)octahydropentalene-2,5-diol] |
